Data on nine compounds can be found in patent US12098109B2, “Reaction methods for producing nitrogenous phosphoryl compounds that are in situ fluid compositions” (SOILGENIC TECHNOLOGIES, LLC, priority 2021, dated 2024).

Like-named read-outs stand apart in the source and are kept apart here.

Series [1] relates to West Texas Soil (Estacado Clay Loam). Description: Ammonia generation from treated urea on soil, headspace NH3 by Draeger am-5000 meter. Particulars: for Measuring Ammonia Generation, Days Ran 3: day 3; for Measuring Ammonia Generation, Days Ran 4: day 4; for Measuring Ammonia Generation, Days Ran 5: day 5; for Measuring Ammonia Generation, Days Ran 6: day 6; for Measuring Ammonia Generation, Days Ran 7: day 7; for Measuring Ammonia Generation, Days Ran 10: day 10; for Measuring Ammonia Generation, Days Ran 11: day 11; for Measuring Ammonia Generation, Days Ran 13: day 13.

A short description of series [2]: Sedimentation of inorganic chloride particles of Example 14 after adding organic liquids. The class given is physicochemical.
Series [3] can be described thus: Flowability by elapsed flow-out time. The class given is physicochemical. The method, then:
(§1) Stability was determined by the measurement of the top clear layer after 3 days @ 50° C. Flowability was determined by measuring the elapsed time that it took for 4 grams of the 5 gram sample to flow out of a container with a 0.9 cm opening @ 25° C.

The nature of series [4]: 1% dispersibility in water, 1 gram of sample in 99 grams of water.
Series [5] can be described thus: Stability by top clear layer after 3 days @ 50 C. In kind it is physicochemical. The method, then: as §1
In series [6] the test system is West Texas Soil (Estacado Clay Loam). Kind of series: NH4Cl vs DCD as nitrification inhibitor, ammonia generation from treated urea. Conditions: compared to DCD.
Series [7] has the same test system. Kind of series: Ammonia generation, N Yield vs N Yield + NH4Cl solutions with urea dropped onto soil sample. Particulars: in the presence of NBPT.
Where [8] appears, read: One Month Storage of treated urea.
[9] abbreviates: Two Month Storage of treated urea.
Where [10] appears, read: 4% organic liquid added to Example 56, time for 4 grams of 5 gram sample to flow out of 0.9 cm opening @ 25 C.
[11] abbreviates: 4% organic liquid added to Example 56.
[12] abbreviates: organic liquid added to Example 56 at a 4% level.
Where [13] appears, read: 4% organic liquid added to Example 56, top clear layer after 3 days @ 50 C.

On to `CCCCNP(N)(N)=S` [NBPT, N-(n-butyl)-thiophosphoric triamide], for which, in series [1] (Initial), the “Measuring Ammonia Generation, Days Ran 3” value came out at 9 ppm; the “Measuring Ammonia Generation, Days Ran 4” value was found to be 10 ppm; the “Measuring Ammonia Generation, Days Ran 5” value turned out to be 4 ppm; the “Measuring Ammonia Generation, Days Ran 6” value turned out to be 4 ppm. Further, in series [1] (Initial), the “Measuring Ammonia Generation, Days Ran 7” value turned out to be 14 ppm; the “Measuring Ammonia Generation, Days Ran 10” value came to 97 ppm; the “Measuring Ammonia Generation, Days Ran 11” value was determined as 88 ppm. In series [1] (Initial, total of days 3-11), the “Measuring Ammonia Generation, Total” value was 226 ppm. In series [1] (setting [8]), the “Measuring Ammonia Generation, Days Ran 3” value was 111 ppm; the “Measuring Ammonia Generation, Days Ran 4” value is recorded as 51 ppm; the “Measuring Ammonia Generation, Days Ran 5” value is given as 57 ppm; the “Measuring Ammonia Generation, Days Ran 6” value was determined as 98 ppm. Also, in series [1] (setting [8]), the “Measuring Ammonia Generation, Days Ran 7” value was found to be 236 ppm; the “Measuring Ammonia Generation, Days Ran 10” value is given as 349 ppm; the “Measuring Ammonia Generation, Days Ran 11” value came out at 251 ppm; the “Measuring Ammonia Generation, Days Ran 13” value is 153 ppm. Moreover, in series [1] (One Month Storage of treated urea, day 12), the “Measuring Ammonia Generation, Days Ran 12” value turned out to be 301 ppm. The “Measuring Ammonia Generation, Total” value in series [1] (One Month Storage of treated urea, total of days 3-13) turned out to be 1607 ppm. Also, in series [1] (Two Month Storage of treated urea, day 1), the “Measuring Ammonia Generation, Days Ran 1” value came to 103 ppm. In addition, in series [1] (setting [9]), the “Measuring Ammonia Generation, Days Ran 5” value was found to be 99 ppm; the “Measuring Ammonia Generation, Days Ran 6” value was 32 ppm; the “Measuring Ammonia Generation, Days Ran 7” value amounted to 129 ppm; the “Measuring Ammonia Generation, Days Ran 13” value is 152 ppm. Besides, in series [1] (Two Month Storage of treated urea, day 8), the “Measuring Ammonia Generation, Days Ran 8” value worked out at 159 ppm. Also, in series [1] (Two Month Storage of treated urea, day 9), the “Measuring Ammonia Generation, Days Ran 9” value is 130 ppm. Besides, in series [1] (Two Month Storage of treated urea, day 14), the “Measuring Ammonia Generation, Days Ran 14” value is 66 ppm. Besides, the “Measuring Ammonia Generation, Days Ran 15” value in series [1] (Two Month Storage of treated urea, day 15) turned out to be 49 ppm. For the same compound, in series [1] (Two Month Storage of treated urea, day 16), the “Measuring Ammonia Generation, Days Ran 16” value is 68 ppm. In addition, the “Measuring Ammonia Generation, Total” value in series [1] (Two Month Storage of treated urea, total) is 884 ppm.
Take `CC[N+](C)(CC)CC.[Cl-]` [triethyl methyl ammonium chloride]: in series [2] (2 grams added/25 grams of Example 14, within 24 hours of standing), the “Clear layer in inches of a 4 inch sample” value turned out to be 0 inches.
As to `OCC(O)CO` [Glycerin], in series [3] (setting [10]), the “seconds (flowability)” value was determined as 2.35 s. In addition, the “1% dispersibility in water rating” value in series [4] (setting [11]) turned out to be 6. Also, in series [4] (setting [12]), the “effect on Example 56's dispersibility in water” value (from here on “effect”) is on record as “improve Example 56's dispersibility in water significantly”. Besides, the “Clear layer (cm)” value in series [5] (setting [13]) was found to be 0.4 cm.
As to `CN1CCCC1=O` [N-methyl pyrrolidone], in series [3] (setting [10]), the “seconds (flowability)” value turned out to be 2.49 s. The “1% dispersibility in water rating” value in series [4] (setting [11]) amounted to 3. The “Clear layer (cm)” value in series [5] (setting [13]) was 0.45 cm.
On to `CC1(C)OCC(CO)O1` (stereo not drawn) [2,2-dimethyl-l,3-dioxolane-4-methanol, 2,2-dimethyl-1,3-dioxolane-4-methanol], for which the “seconds (flowability)” value in series [3] (setting [10]) was 3.85 s. Moreover, the “1% dispersibility in water rating” value in series [4] (setting [11]) is 6. The “effect” value in series [4] (setting [12]) is listed as “improve Example 56's dispersibility in water significantly”. The “Clear layer (cm)” value in series [5] (setting [13]) was determined as 0.3 cm.
Consider butyl carbonate, for which the “Clear layer in inches of a 4 inch sample” value in series [2] is recorded as 0 inches.
Turning to `C[S+](C)[O-]` [dimethyl sulfoxide], the “seconds (flowability)” value in series [3] (setting [10]) is 20.3 s. Besides, the “Clear layer in inches of a 4 inch sample” value in series [2] (8 grams added/25 grams of Example 14, within 24 hours of standing) is less than 1 inches; in series [2] (25 grams added/25 grams of Example 14, within 24 hours of standing) it was 1 inches. Further, the “1% dispersibility in water rating” value in series [4] (setting [11]) is 4. The “Clear layer (cm)” value in series [5] (setting [13]) was found to be 0 cm.
With `Cl.N` [NH4Cl, ammonium chloride], the “performance as a nitrification inhibitor” value in series [6] is listed as “equivalent to DCD”. Also, the “behaviour in ammonia generation test” value in series [7] is reported as “performing as a nitrification inhibitor”.
Turning to `CCOP(=O)(OCC)OCC` [triethyl phosphate], the “seconds (flowability)” value in series [3] was found to be 4.03 s. In addition, in series [2], the “Clear layer in inches of a 4 inch sample” value is reported as 0 inches. Besides, in series [4], the “1% dispersibility in water rating” value came to 6 and the “effect” value is listed as “improve Example 56's dispersibility in water significantly”. The “Clear layer (cm)” value in series [5] is on record as 0.4 cm.
